Tests used:
IL-1β in GCF [1] = assay: Level of IL-1β in gingival crevicular fluid (sandwich ELISA) after ketorolac oral rinse; format: in vivo, human; details: Ketorolac treatment, Example 11
From the text: The clinical evaluation was preceded by collection of GCF, as previously described (Lamster et al., A comparison of 4 methods of data presentation for lysosomal enzyme activity in gingival crevicular fluid. J. Clin. Periodontol., 15:347-52, 1988; Lamster et al., Correlation analysis for clinical and gingival crevicular fluid parameters at anatomically related gingival sites. J. Clin. Periodontol., 18:272-77, 1991), from the mesiolingual and mesiobuccal surfaces of the first molar tooth in each quadrant. Where the first molar was absent, the second molar was sampled. If both the first and second molar were missing, the second premolar was sampled. If there were no posterior teeth in a quadrant, no sample was taken from that quadrant.
Briefly, teeth were air-dried and isolated with cotton rolls, supragingival plaque was gently removed, and GCF was sampled with precut methylcellulose filter paper strips for 30 sec. Strips were measured for fluid volume with a calibrated Periotron 6000 (Interstate Drug Exchange, Amityville, N.Y.), then removed to separate microcentrifuge tubes containing 50 μl of phosphate-buffered saline (Tween 20). […] Following elution, each GCF sample was analyzed separately.
GCF samples were analyzed for IL-1β using a commercially-available enzyme-linked immunosorbant assay, Multikine Kit (Cistron Biotechnology, Pine Brook, N.J.). […]

circulating TNF = assay: Circulating TNF level (blood TNF alpha immunoassay) after ketorolac oral rinse; format: in vivo, human; details: oral rinse containing 0.1% Ketorolac twice daily for 6 months; type 2 diabetes and chronic periodontitis subjects
Protocol: Subjects are selected and divided into different groups as described in Examples 1 and 2. An oral rinse containing 0.1% Ketorolac was administered twice daily for 6 months to reduce the level of IL-1β in GCF in the subjects (see, Cavanaugh et al., Coordinate production of PGE2 and IL-1 beta in the gingival crevicular fluid of adults with periodontitis: its relationship to alveolar bone loss and disruption by twice daily treatment with ketorolac tromethamine oral rinse. J. Periodontal Res. 33:75-82, 1998). GCF samples are collected following the procedures of example 3 and the level of IL-1β in GCF is determined as described in example 5. Circulating TNF level is determined by measuring blood TNF level using the TNF alpha immunoassay kit (Assay Designs Inc., Ann Arbor, Mich.) following the manufacturer's instructions.

HbA1c = HbA1c levels as indicator of metabolic control; format: in vivo, human; details: Ketorolac treatment, Example 11
Protocol: (§1) Glycated hemoglobin (HbA1c) levels were measured from freshly drawn anticoagulated whole blood using an automated affinity chromatography system (BioRad Micromat II, Hercules, Calif.). Serum glucose was determined by the glucose oxidase method (Roche Diagnostics, Basel, CH). […] The study is performed as described in example 8. HbA1c levels and serum glucose levels, which are used as indicators of metabolic control, are measured as described in example 6.

serum glucose = assay: Serum glucose levels as indicator of metabolic control; format: in vivo, human; details: Ketorolac treatment, Example 11
Protocol: as §1

IL-1β in GCF [2] = details: used as an oral rinse; cited from earlier work
[3] = tested on: circulating levels of TNF-α, and IL-6; details: infusion of glutathione; healthy and impaired glucose tolerance individuals; cited from earlier work

SMILES | levels of IL-1β in GCF (IL-1β in GCF [1]) | level of serum TNF (circulating TNF) | HbA1c levels (HbA1c) | serum glucose levels (serum glucose) | GCF IL-1β in the oral cavity (IL-1β in GCF [2]) | circulating cytokines following a glucose bolus administration [3]
O=C(c1ccccc1)c1ccc2n1CCC2C(=O)O (stereo not drawn) [Ketorolac] | reducing the levels of IL-1β in GCF | significant reduction | decline of HbA1c levels | decline | reduce GCF IL-1β | 
N[C@@H](CCC(=O)N[C@@H](CS)C(=O)NCC(=O)O)C(=O)O [glutathione] |  |  |  |  |  | no increase of cytokines
